Results from US20120035187A1 (priority 2009, published 2012).

What was measured:
[1] = test system: hamsters with cerebellar ataxia; experiment: Rotarod test in hamsters with cerebellar ataxia; type: in vivo, hamster
Source text: (§1) Since NK-4 was confirmed to have a neurodegenerative inhibitory action in Experiment 1, hamsters with cerebellar ataxia (cerebellar ataxia is called “cerebellar A” and hamsters with cerebellar ataxia are called “hamsters with cerebellar A”, hereinafter) as a suitable model for human neurodegenerative diseases (e.g., spinal cerebellar degeneration) were subjected to examine the influence of NK-4 administration on their behaviors and brain tissues. Twenty-five hamsters with natural mutation (Nna1 inhibition), which are known to lose Purkinje's cells after three-weeks of age and then induce a spontaneous onset of kinetic motor ataxia after seven-weeks of age (see Akita K. et al., “J. Neurogenetics”, Vol. 21, pp. 19-29, 2007), had been fed at Hayashibara Biochemical Laboratories., Inc., Okayama, Japan, were randomly allocated to the test groups 1 to 5, five heads in each group, as shown in Table 2. Prior to the onset of cerebellar A (at three-weeks of age), PBS was started to administer to the hamsters in the test group 1 at a dose of 10 ml/kg/day. Prior to the onset of cerebellar A (at three-weeks of age), NK-4 was started to be administered to the hamsters in the test groups 2 to 4 at a daily dose of 20 μg/kg, 100 μg/kg or 500 μg/kg. “IGF-1, human, a product name of insulin-like growth factor, commercialized by Assaypro LLC, MO, USA. These administered ingredients were intraperitoneally administered daily to hamsters once a day up to 10-weeks of age. The degree of symptom of cerebellar A and the improvement effect on the symptom by NK-4 were evaluated with an index of improvement in motor coordination of hamsters by conducting once a week the later described rotarod test and the slant tolerance test. At the age of 10-weeks, the hamsters were subjected to counting the falling down frequency and extracted their brains, which were then histologically evaluated. In parallel, the concentration of glutamic acid in the bloods and cerebrospinal fluids (CSF) of the hamsters was assayed. As a test group 6, five normal hamsters, with the same age as the hamsters with cerebellar A used in the test groups 1 to 5, were provided and tested similarly as the hamsters with cerebellar A in such a manner of intraperitoneally administering PBS to them at a dose of 10 ml/kg/day once a day up to 10-weeks of age.
As an index for coordinated movement, it was used a duration time of hamster's movement to staying on a rotarod by locomotion in synchronization with the turn of the rotarod; placing a hamster on an apparatus with a rotarod (having a diameter of 60 mm, prepared by Hayashibara Biochemical Laboratories, Inc., Okayama, Japan), turning at a constant rate of six rpm, and measuring the time until the hamster falls down from the rotarod (see Fernandez et al., “Proc. Natl. Acad. Sci. USA”, Vol. 95, pp. 1253-1258, 1998). The test was repeated six times for each hamster, where five-times of tests starting from the initiation of the test were made as a preliminary examination, and the time until each hamster fell down from the rotarod (called “falling time”, hereinafter) was measured, followed by averaging the falling times for each group consisting of five heads. The falling time was measured until 180 seconds. Based on the results, the relationship between the age and the falling time for each hamster with cerebellar A (test group 1) administered with PBS was graphed. […]
Similarly as in Experiment 2, 130 hamsters with cerebellar ataxia, born within the same week and 3-weeks of age, were randomly divided into 13 groups, consisting of 10 hamsters, respectively. […]

[2] = test system: hamsters with cerebellar ataxia; experiment: Slant tolerance test in hamsters with cerebellar ataxia; type: in vivo, hamster; conditions: cerebellar ataxia hamsters; 20 μg/kg body weight i.p. once a day; 4-Weeks
Source text: as §1
Hamsters were placed on a slope-angle-variable-board while keeping their heads upward, followed by determining the angle for allowing the hamsters to keep staying thereupon for five seconds for use as an endurable-slant-slope-angle test (see Rivlin et al., “J. Neurosurg.”, Vol. 47, pp. 577-581, […]). The initial slope angle was set to 25 degrees and increased by 5 degrees step by step. When a tested hamster in a static condition fell down within five seconds, the slope angle was decreased by one degree step by step, followed by judging the angle that allows the hamster to keep static staying for five seconds, measuring the tolerable slant-slope-angle, and averaging the data for five heads in each group.
Similarly as in Experiment 2, 130 hamsters with cerebellar ataxia, born within the same week and 3-weeks of age, were randomly divided into 13 groups, consisting of 10 hamsters, respectively. […] The hamsters (10 heads) in the remaining one group were intraperitoneally administered from their age of 3- to 10-weeks with a sterilized 10% maltose solution (pyrogen-free) in an amount of 0.5 ml/hamster (control) once a day for 56 days At the next day after the end of the administration, body weight of each hamster was weighed, followed by performing rotarod test, slope endurance test, and counting of falling down frequency. The types of compounds applied to each group and the results are in Table 25.

## CCN1C=CC(=CC=C(C=Cc2cc[n+](CC)c3ccccc23)c2cc[n+](CC)c3ccccc23)c2ccccc21.[I-].[I-] [NK-4]
[1]; 20 μg/kg body weight, 6-Weeks
  Delayed days until the onset of cerebellar ataxia in hamster: 11 days
[1]; 20 μg/kg body weight, 7-Weeks
  Delayed days until the onset of cerebellar ataxia in hamster: 17 days
[1]; 20 μg/kg body weight, 8-Weeks
  Delayed days until the onset of cerebellar ataxia in hamster: 17 days
[1]; 20 μg/kg body weight, 9-Weeks
  Delayed days until the onset of cerebellar ataxia in hamster: 27 days
[1]; 20 μg/kg body weight, 10-Weeks
  Delayed days until the onset of cerebellar ataxia in hamster: 32 days
[1]; 100 μg/kg body weight, 5-Weeks
  Delayed days until the onset of cerebellar ataxia in hamster: 7 days
[1]; 100 μg/kg body weight, 6-Weeks
  Delayed days until the onset of cerebellar ataxia in hamster: 14 days
[1]; 100 μg/kg body weight, 7-Weeks
  Delayed days until the onset of cerebellar ataxia in hamster: 21 days
[1]; 100 μg/kg body weight, 8-Weeks
  Delayed days until the onset of cerebellar ataxia in hamster: 21 days
[1]; 100 μg/kg body weight, 9-Weeks
  Delayed days until the onset of cerebellar ataxia in hamster: 29 days
[1]; 100 μg/kg body weight, 10-Weeks
  Delayed days until the onset of cerebellar ataxia in hamster: 36 days
[1]; 500 μg/kg body weight, 5-Weeks
  Delayed days until the onset of cerebellar ataxia in hamster: 6 days
[1]; 500 μg/kg body weight, 6-Weeks
  Delayed days until the onset of cerebellar ataxia in hamster: 14 days
[1]; 500 μg/kg body weight, 7-Weeks
  Delayed days until the onset of cerebellar ataxia in hamster: 21 days
[1]; 500 μg/kg body weight, 8-Weeks
  Delayed days until the onset of cerebellar ataxia in hamster: 21 days
[1]; 500 μg/kg body weight, 9-Weeks
  Delayed days until the onset of cerebellar ataxia in hamster: 28 days
[1]; 500 μg/kg body weight, 10-Weeks
  Delayed days until the onset of cerebellar ataxia in hamster: 35 days
[1]; cerebellar ataxia hamsters, 20 μg/kg body weight i.p. once a day from 3-weeks of age, 4-Weeks
  time (sec) endured until falling from rotarod apparatus: 152 ± 4 s
[1]; cerebellar ataxia hamsters, 20 μg/kg body weight i.p. once a day, 5-Weeks
  time (sec) endured until falling from rotarod apparatus: 53 ± 5 s
[1]; cerebellar ataxia hamsters, 20 μg/kg body weight i.p. once a day, 6-Weeks
  time (sec) endured until falling from rotarod apparatus: 89 ± 9 s
[1]; cerebellar ataxia hamsters, 20 μg/kg body weight i.p. once a day, 7-Weeks
  time (sec) endured until falling from rotarod apparatus: 74 ± 10 s
[1]; cerebellar ataxia hamsters, 20 μg/kg body weight i.p. once a day, 8-Weeks
  time (sec) endured until falling from rotarod apparatus: 36 ± 2 s
[1]; cerebellar ataxia hamsters, 20 μg/kg body weight i.p. once a day, 9-Weeks
  time (sec) endured until falling from rotarod apparatus: 48 ± 3 s
[1]; cerebellar ataxia hamsters, 20 μg/kg body weight i.p. once a day, 10-Weeks
  time (sec) endured until falling from rotarod apparatus: 40 ± 4 s
[1]; cerebellar ataxia hamsters, 100 μg/kg body weight i.p. once a day, 4-Weeks
  time (sec) endured until falling from rotarod apparatus: 136 ± 5 s
[1]; cerebellar ataxia hamsters, 100 μg/kg body weight i.p. once a day, 5-Weeks
  time (sec) endured until falling from rotarod apparatus: 145 ± 8 s
[1]; cerebellar ataxia hamsters, 100 μg/kg body weight i.p. once a day, 6-Weeks
  time (sec) endured until falling from rotarod apparatus: 139 ± 10 s
[1]; cerebellar ataxia hamsters, 100 μg/kg body weight i.p. once a day, 7-Weeks
  time (sec) endured until falling from rotarod apparatus: 122 ± 7 s
[1]; cerebellar ataxia hamsters, 100 μg/kg body weight i.p. once a day, 8-Weeks
  time (sec) endured until falling from rotarod apparatus: 79 ± 12 s
[1]; cerebellar ataxia hamsters, 100 μg/kg body weight i.p. once a day, 9-Weeks
  time (sec) endured until falling from rotarod apparatus: 66 ± 6 s
[1]; cerebellar ataxia hamsters, 100 μg/kg body weight i.p. once a day, 10-Weeks
  time (sec) endured until falling from rotarod apparatus: 66 ± 6 s
[1]; cerebellar ataxia hamsters, 500 μg/kg body weight i.p. once a day, 4-Weeks
  time (sec) endured until falling from rotarod apparatus: 156 ± 5 s
[1]; cerebellar ataxia hamsters, 500 μg/kg body weight i.p. once a day, 5-Weeks
  time (sec) endured until falling from rotarod apparatus: 95 ± 8 s
[1]; cerebellar ataxia hamsters, 500 μg/kg body weight i.p. once a day, 6-Weeks
  time (sec) endured until falling from rotarod apparatus: 119 ± 4 s
[1]; cerebellar ataxia hamsters, 500 μg/kg body weight i.p. once a day, 7-Weeks
  time (sec) endured until falling from rotarod apparatus: 145 ± 7 s
[1]; cerebellar ataxia hamsters, 500 μg/kg body weight i.p. once a day, 8-Weeks
  time (sec) endured until falling from rotarod apparatus: 85 ± 8 s
[1]; cerebellar ataxia hamsters, 500 μg/kg body weight i.p. once a day, 9-Weeks
  time (sec) endured until falling from rotarod apparatus: 60 ± 7 s
[1]; cerebellar ataxia hamsters, 500 μg/kg body weight i.p. once a day, 10-Weeks
  time (sec) endured until falling from rotarod apparatus: 52 ± 5 s
[1]; cerebellar ataxia hamsters, agents of Example 1 compared among pentamethine cyanine dye compounds
  improving effect on motor coordination (in words): particularly high improving effect on motor coordination
[1]; from rotarod falling time vs test group 1, 20 μg/kg body weight, 5-Weeks
  Delayed days until the onset of cerebellar ataxia in hamster: 0 days
[1]; hamster with cerebellar ataxia, agent of Example 1, 0.5 ml/hamster intraperitoneally once a day for 56 days
  Time of falling from rotarod: 88.4 ± 3.2 s
[2]
  endurable-slant-slope-angle (degree): 42.6 ± 0.5 degree
